{
  "source": "ChEMBL document CHEMBL1149325",
  "about": "(J Med Chem, 2004)",
  "key": {"Mus musculus [1]": {"organism": "Mus musculus", "description": "Percentage of compound bound to serum protein was determined"}, "[2]": {"molecular_target": "Cyclin-dependent kinase 2/cyclin E (Homo sapiens, UniProt P24941)"}, "[3]": {"test": "Cmax in mice at 25 umol/kg i.p. administration", "assay_type": "ADME, organism-based", "set-up": "dose 25 umol/kg, route intraperitoneal", "conditions": "mouse, in vivo, ip"}, "Mus musculus [4]": {"system": "Mus musculus", "test": "Tmax in mice at 25 uM/kg i.p. administration", "assay_type": "functional, organism-based"}, "Mus musculus [5]": {"system": "Mus musculus", "test": "Half life after intraperitoneal administration in mice at 25 uM/kg", "assay_type": "functional, organism-based"}, "Mus musculus [6]": {"system": "Mus musculus", "test": "Area under curve was determined for compound after intraperitoneal administration in mice at 25 uM/kg", "assay_type": "functional, organism-based"}, "Mus musculus [7]": {"system": "Mus musculus", "test": "Mean-residence time was determined for compound after intraperitoneal administration in mice at 25 uM/kg", "assay_type": "functional, organism-based"}, "Mus musculus [8]": {"organism": "Mus musculus", "remark": "listed apart in the source", "description": "Maximum tolerated dose in A2780 tumor in mice after intraperitoneal administration daily for 8 days"}, "Mus musculus [9]": {"system": "Mus musculus", "test": "Half life after intraperitoneal administration in mice at 18 uM/kg", "assay_type": "functional, organism-based"}, "Mus musculus [10]": {"system": "Mus musculus", "test": "Tmax in mice at 18 uM/kg i.p. administration", "assay_type": "functional, organism-based"}, "Mus musculus [11]": {"organism": "Mus musculus", "test": "Log cell kill for A2780 tumor in mice", "assay_type": "functional"}, "P388 [12]": {"system": "P388", "description": "Maximum tolerated dose was determined against P338 tumor in mice after intraperitoneal administration daily for 7 days"}, "Mus musculus [13]": {"system": "Mus musculus", "test": "Microsomal stability was determined in mouse liver microsomes after intraperitoneal administration in mice at 18 uM/kg", "assay_type": "functional"}, "Mus musculus [14]": {"system": "Mus musculus", "test": "Mean-residence time was determined for compound after intraperitoneal administration in mice at 18 uM/kg", "assay_type": "functional, organism-based"}, "[15]": {"test": "Cmax in mice at 18 umol/kg i.p. administration", "assay_type": "ADME, organism-based", "set-up": "dose 18 umol/kg, route intraperitoneal", "conditions": "mouse, in vivo, ip"}, "Mus musculus [16]": {"system": "Mus musculus", "test": "Area under curve was determined for compound after intraperitoneal administration in mice at 18 uM/kg", "assay_type": "functional, organism-based"}, "P388 [17]": {"system": "P388", "remark": "listed apart in the source", "description": "Increase in life span of the treated mice to those of control was determined"}, "Mus musculus [18]": {"system": "Mus musculus", "test": "Tmax in mice at 23 uM/kg i.v. administration", "assay_type": "functional, organism-based"}, "Mus musculus [19]": {"organism": "Mus musculus", "test": "Log cell kill for A2780 tumor in mice; […]", "assay_type": "functional"}, "Mus musculus [20]": {"system": "Mus musculus", "test": "Mean-residence time was determined for compound intravenous administration in mice at 23 uM/kg", "assay_type": "functional, organism-based"}, "Mus musculus [21]": {"system": "Mus musculus", "test": "Half life after intravenous administration in mice at 23 uM/kg", "assay_type": "functional, organism-based"}, "Mus musculus [22]": {"system": "Mus musculus", "test": "Microsomal stability was determined in mouse liver microsomes after intravenous administration in mice at 23 uM/kg", "assay_type": "functional"}, "in vivo": {"test": "in vivo", "conditions": "mouse, iv, 23 umol/kg", "description": "Cmax in mice at 23 umol/kg i.v. administration"}, "[23]": {"test": "Cmax in mice at 24 umol/kg i.p. administration", "assay_type": "ADME, organism-based", "set-up": "dose 24 umol/kg, route intraperitoneal", "conditions": "mouse, in vivo, ip"}, "[24]": {"test": "Cmax in mice at 26 umol/kg i.p. administration", "assay_type": "ADME, organism-based", "set-up": "dose 26 umol/kg, route intraperitoneal", "conditions": "mouse, in vivo, ip"}, "Mus musculus [25]": {"system": "Mus musculus", "test": "Mean-residence time was determined for compound after intraperitoneal administration in mice at 26 uM/kg", "assay_type": "functional, organism-based"}, "Mus musculus [26]": {"system": "Mus musculus", "test": "Half life after intraperitoneal administration in mice at 26 uM/kg", "assay_type": "functional, organism-based"}, "Mus musculus [27]": {"system": "Mus musculus", "test": "Area under curve was determined for compound after intraperitoneal administration in mice at 26 uM/kg", "assay_type": "functional, organism-based"}},
  "data": [
    {"smiles": "CC(=O)Nc1ncc(SCc2ncc(C(C)(C)C)o2)s1", "values": [
      {"measurement": "Binding", "setting": "Mus musculus [1]", "result": 83, "unit": "%"},
      {"measurement": "IC50", "setting": "[2]", "result": 5, "unit": "µM"}
    ]},
    {"smiles": "CC(C)(C)c1cnc(CSc2cnc(NC(=O)C3CCCCC3)s2)o1", "values": [
      {"measurement": "IC50", "setting": "[2]", "result": 300, "unit": "µM"}
    ]},
    {"smiles": "CC(C)(C)c1cnc(CSc2cnc(NC(=O)Cc3ccccc3)s2)o1", "values": [
      {"measurement": "IC50", "setting": "[2]", "result": 3, "unit": "µM"}
    ]},
    {"smiles": "CN1CCC(C(=O)Nc2ncc(SCc3ncc(C(C)(C)C)o3)s2)CC1", "values": [
      {"measurement": "Binding", "setting": "Mus musculus [1]", "result": 75, "unit": "%"},
      {"measurement": "Cmax", "setting": "[3]", "result": 1100, "unit": "nM"},
      {"measurement": "Tmax", "setting": "Mus musculus [4]", "result": 0.5, "unit": "h"},
      {"measurement": "T1/2", "setting": "Mus musculus [5]", "result": 0.7, "unit": "h"},
      {"measurement": "AUC", "setting": "Mus musculus [6]", "result": 473, "unit": "ng·h/mL"},
      {"measurement": "MRT", "setting": "Mus musculus [7]", "result": 1.1, "unit": "h"}
    ]},
    {"smiles": "CC(C)(C)c1cnc(CSc2cnc(NC(=O)Cc3ccc(CNC(CO)CO)cc3)s2)o1", "values": [
      {"measurement": "MTD", "setting": "Mus musculus [8]", "result": 26, "unit": "mg/kg"},
      {"measurement": "T1/2", "setting": "Mus musculus [9]", "result": 1.8, "unit": "h"},
      {"measurement": "Binding", "setting": "Mus musculus [1]", "result": 79, "unit": "%"},
      {"measurement": "Tmax", "setting": "Mus musculus [10]", "result": 1, "unit": "h"},
      {"measurement": "LCK", "setting": "Mus musculus [11]", "result": 3.3},
      {"measurement": "MTD", "setting": "P388 [12]", "result": 32, "unit": "mg/kg"},
      {"measurement": "Activity", "setting": "Mus musculus [13]", "result": "0.22 nM min-1 (mg of protein)-1"},
      {"measurement": "MRT", "setting": "Mus musculus [14]", "result": 2.9, "unit": "h"},
      {"measurement": "Cmax", "setting": "[15]", "result": 800, "unit": "nM"},
      {"measurement": "AUC", "setting": "Mus musculus [16]", "result": 1320, "unit": "ng·h/mL"},
      {"measurement": "Survival", "setting": "P388 [17]", "result": 140, "unit": "%"}
    ]},
    {"smiles": "CC(C)(C)c1cnc(CSc2cnc(NC(=O)[C@H]3CC[C@H](N)CC3)s2)o1", "values": [
      {"measurement": "Binding", "setting": "Mus musculus [1]", "result": 86, "unit": "%"}
    ]},
    {"smiles": "CC(C)(C)OC(=O)N1CCC(C(=O)Nc2ncc(SCc3ncc(C(C)(C)C)o3)s2)CC1", "values": [
      {"measurement": "Binding", "setting": "Mus musculus [1]", "result": 99, "unit": "%"}
    ]},
    {"smiles": "CC(C)(C)c1cnc(CSc2cnc(NC(=O)[C@H]3CC[C@@H](N)CC3)s2)o1", "values": [
      {"measurement": "Tmax", "setting": "Mus musculus [18]", "result": 6, "unit": "min"},
      {"measurement": "MTD", "setting": "Mus musculus [8]", "result": 8, "unit": "mg/kg"},
      {"measurement": "Binding", "setting": "Mus musculus [1]", "result": 68, "unit": "%"},
      {"measurement": "LCK", "setting": "Mus musculus [19]", "result": 1.7},
      {"measurement": "MTD", "setting": "P388 [12]", "result": 8, "unit": "mg/kg"},
      {"measurement": "MRT", "setting": "Mus musculus [20]", "result": 2.2, "unit": "h"},
      {"measurement": "T1/2", "setting": "Mus musculus [21]", "result": 2.2, "unit": "h"},
      {"measurement": "Activity", "setting": "Mus musculus [22]", "result": "0.07 nM min-1 (mg of protein)-1"},
      {"measurement": "AUC", "setting": "Mus musculus [16]", "result": 4660, "unit": "ng·h/mL"},
      {"measurement": "Cmax", "setting": "in vivo", "result": 13600, "unit": "nM"},
      {"measurement": "Survival", "setting": "P388 [17]", "result": 179, "unit": "%"}
    ]},
    {"smiles": "CC(C)(C)c1cnc(CSc2cnc(NC(=O)C3CCN(S(C)(=O)=O)CC3)s2)o1", "values": [
      {"measurement": "Binding", "setting": "Mus musculus [1]", "result": 84, "unit": "%"}
    ]},
    {"smiles": "CC(C)(C)c1cnc(CSc2cnc(NC(=O)C3CCN(CCO)CC3)s2)o1", "values": [
      {"measurement": "Binding", "setting": "Mus musculus [1]", "result": 75, "unit": "%"},
      {"measurement": "MTD", "setting": "P388 [12]", "result": 22.5, "unit": "mg/kg"},
      {"measurement": "Tmax", "setting": "Mus musculus [4]", "result": 0.5, "unit": "h"},
      {"measurement": "T1/2", "setting": "Mus musculus [5]", "result": 1.9, "unit": "h"},
      {"measurement": "AUC", "setting": "Mus musculus [6]", "result": 764, "unit": "ng·h/mL"},
      {"measurement": "MRT", "setting": "Mus musculus [7]", "result": 2.4, "unit": "h"},
      {"measurement": "Cmax", "setting": "[23]", "result": 1100, "unit": "nM"},
      {"measurement": "Survival", "setting": "P388 [17]", "result": 140, "unit": "%"}
    ]},
    {"smiles": "CC(C)(C)c1cnc(CSc2cnc(NC(=O)C3CCCNC3)s2)o1", "note": "(configuration not stated)", "values": [
      {"measurement": "MTD", "setting": "Mus musculus [8]", "result": 22, "unit": "mg/kg"},
      {"measurement": "Binding", "setting": "Mus musculus [1]", "result": 82, "unit": "%"},
      {"measurement": "Cmax", "setting": "[24]", "result": 3500, "unit": "nM"},
      {"measurement": "LCK", "setting": "Mus musculus [11]", "result": 1.6},
      {"measurement": "MTD", "setting": "P388 [12]", "result": 20, "unit": "mg/kg"},
      {"measurement": "MRT", "setting": "Mus musculus [25]", "result": 3.5, "unit": "h"},
      {"measurement": "T1/2", "setting": "Mus musculus [26]", "result": 2.2, "unit": "h"},
      {"measurement": "AUC", "setting": "Mus musculus [27]", "result": 4600, "unit": "ng·h/mL"},
      {"measurement": "Survival", "setting": "P388 [17]", "result": 152, "unit": "%"}
    ]}
  ]
}
